The conditions of series [1]: therapeutic use, several daily doses of tablets with dose units of 160 to 300 mg; cited from earlier work.
The next series addresses T1, histamine-H2 receptors (Rattus norvegicus, UniProt P25102).
T1 construct: from tissue; host or cells: rat stomach, perfused (in vivo Ghosh-Schild preparation)
The experiment in a line: Gosh-Schild rat (Stimulator: histamine). It is filed as in vivo. Conditions: iv, i.V., read-out: ID50 (the source's name). From the text: These compounds also antagonize the histamine action on the frequency of contraction of the isolated right atrium of the guinea-pig but have no effect on histamine induced contractions of isolated, smooth gastrointestinal muscle when these are produced by […].
Experimental model: Gosh-Schild rat

T1 sequence (P25102 whole entry, the tested form may be a part): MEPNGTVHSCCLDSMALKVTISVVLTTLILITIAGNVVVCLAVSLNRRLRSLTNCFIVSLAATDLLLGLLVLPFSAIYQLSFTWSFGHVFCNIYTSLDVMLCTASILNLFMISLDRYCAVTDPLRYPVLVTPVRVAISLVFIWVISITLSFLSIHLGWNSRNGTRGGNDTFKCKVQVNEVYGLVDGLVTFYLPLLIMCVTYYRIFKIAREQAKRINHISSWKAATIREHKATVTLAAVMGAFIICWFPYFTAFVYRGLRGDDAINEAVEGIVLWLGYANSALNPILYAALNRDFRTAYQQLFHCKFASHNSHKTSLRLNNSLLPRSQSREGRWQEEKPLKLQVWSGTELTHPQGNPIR

`CN/C(=N/CCSCc1nc[nH]c1C)NC#N` [Cimetidine]: the half life result in series [1] is “relatively short”. Also, the ED50 at histamine-H2 receptors came out at 1.4 µmol/kg. As for `Nc1n[s+]([O-])nc1NCC(O)COCc1cccc(CN2CCCCC2)c1` (stereo not shown) [Example 1, 3-[2-Hydroxy-3-[3-(1-piperidylmethyl)-benzyloxy]propylamino]-4-amino-1,2,5-thiadiazole-1-oxide], at histamine-H2 receptors, the ED50 was 0.075 µmol/kg.

Regarding `CNC(=C[N+](=O)[O-])NCCSCc1ccc(CN(C)C)o1` [ranitidine], the half life entry in series [1] is recorded as “relatively short”.
